Where two headings read alike, the source gives them in different places.
How the values were obtained:
5HT1A receptors = biological target: T1, 5HT1A receptors (Rattus norvegicus, UniProt P19327); test: Binding to 5HT1A receptors (3H-8-OH-DPAT displacement, rat hippocampus membranes)
T1 sequence (P19327 1-422): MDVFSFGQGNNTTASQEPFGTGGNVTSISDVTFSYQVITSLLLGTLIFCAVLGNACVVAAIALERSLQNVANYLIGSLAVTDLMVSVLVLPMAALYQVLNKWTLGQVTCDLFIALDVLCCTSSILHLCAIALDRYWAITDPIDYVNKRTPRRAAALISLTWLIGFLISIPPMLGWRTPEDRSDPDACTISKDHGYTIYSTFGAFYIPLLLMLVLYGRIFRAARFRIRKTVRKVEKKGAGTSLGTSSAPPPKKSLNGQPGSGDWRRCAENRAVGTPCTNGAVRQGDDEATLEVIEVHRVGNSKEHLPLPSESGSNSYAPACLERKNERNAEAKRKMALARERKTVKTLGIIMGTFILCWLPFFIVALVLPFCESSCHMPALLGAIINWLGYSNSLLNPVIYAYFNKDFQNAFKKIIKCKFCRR
Procedure: Binding to 5HT1A receptors
Assays were performed essentially as described by Gozlan et al (1983). Varying amounts of tested drugs were added to 1 mL final volume reaction mixtures that included 100 μg of rat hippocampus membrane protein, 0.5 nM ^3 H-8-OH-DPAT, 4 mM CaCl2, 0.1% ascorbic acid, 10 μM pargyline and 50 mM Tris HCl buffer, pH 7.4. After incubation at 25° C. for 30 minutes, samples were filtered under reduced pressure using glass fibre filters. The filters were washed with ice-cold buffer and dried. Non-specific binding was defined as that obtained in the presence of 10 μM 5HT. Radioactivity was quantified by scintillation counting and data was handled as described for the 5HT1D binding assay. (Gozlan H.; El Mestikawy S.; Pichat L.; Glowinski J. and Hamon M. (1983). Identification of presynaptic serotonin autoreceptors using a new ligand:^3 H-PAT. Nature 305, 140-142).

Dog saphenous vein = Dog saphenous vein isometric recording (contraction, pD2); type: cell-based, beagle dog; conditions: Canis lupus familiaris; isolated lateral saphenous vein rings, 37° C., in presence of 5-HT2, H1 and muscarinic antagonists; serotonin 1 μM as reference standard
Procedure: Isometric recordings were performed essentially as described by Humphrey et al (1988). Briefly, lateral saphenous vein ring preparations (3 mm. wide) removed from anaesthetized beagle dogs were suspended under 2g. resting tension, in 30 mL organ baths containing Krebs at 37° C. The experiments were carried out in the presence of 5-HT2, H1 and muscarinic antagonists and serotonin 1 μM was used as quantitative reference standard.
(Humphrey P. P. A.; Feniuk W.; Perren M. J.; Connor H. E.; Oxford A. W .; Coates I. H. and Butina D. (1988). GR 43175, a selective agonist for the 5-HT1-like receptor in dog isolated saphenous vein. Br. J. Pharmac. 94, 1123-1132).

5HT1D receptors [1] = test: Binding to 5HT1D receptors (125I-GTI displacement, calf caudate nucleus membranes); conditions: ratio of binding IC50 values, 3H-8-OH-DPAT over 125I-GTI
Procedure: (§1) Binding to 5HT1D Receptors
(§2) Assays were performed essentially as described by Bruinvels et al. Varying amounts of tested drugs were added to 0.25 mL final volume reaction that included 100 μg of calf caudate nucleus membrane protein, 100 pM (Serotonin-5-0-Carboxymethyl-Glycyl[^125 I]Tyrosinamide (^125 I-GTI), 4 mM CaCl2 and 50 mM Tris HCl buffer, pH 7.4. After incubation at 37° C. for 30 minutes, samples were filtered under reduced pressure using glass fibre filters. The filters were washed with ice-cold buffer and dried. Non-specific binding was defined as that obtained in the presence of 10 μM 5HT. Trapped radioactivity was quantified using a gamma counter. Displacement curves were constructed and the concentration displacing 50% of radioligand was calculated for each tested compound using non-linear regression. Data from at least three different assays run in duplicate was averaged. (Bruinvels A. T.; Lery H.; Palacios J. M. and Hoyer D. 5-HT1D binding sites in various species: similar pharmacological profile in dog, monkey, calf, guinea-pig and human brain membranes. Naunyn-Schmiedeberg's Arch. Pharmacol. (in press)).

5HT1D receptors [2] = biological target: T2, 5HT1D receptors (Bos taurus, UniProt F1MGM3); test: as above
T2 construct: calf caudate nucleus membrane protein; from tissue; host or cells: calf caudate nucleus membranes
T2 sequence (F1MGM3 1-403): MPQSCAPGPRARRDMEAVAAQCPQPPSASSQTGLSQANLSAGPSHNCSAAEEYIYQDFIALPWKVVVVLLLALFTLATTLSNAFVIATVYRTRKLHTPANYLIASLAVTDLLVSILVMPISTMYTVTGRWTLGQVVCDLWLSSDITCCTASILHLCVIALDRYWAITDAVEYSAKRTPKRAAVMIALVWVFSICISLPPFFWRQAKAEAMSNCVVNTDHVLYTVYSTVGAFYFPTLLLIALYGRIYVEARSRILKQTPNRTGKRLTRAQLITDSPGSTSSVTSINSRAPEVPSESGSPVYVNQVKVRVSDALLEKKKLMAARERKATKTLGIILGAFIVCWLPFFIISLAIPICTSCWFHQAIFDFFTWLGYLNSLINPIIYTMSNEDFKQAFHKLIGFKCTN
Procedure: as §1, §2

5-HT1A receptor [3] = conditions: background statement; cited from earlier work
5-HT1A receptor [4] = conditions: attributed to affinity for 5-HT1A receptor; cited from earlier work
5-HT1D receptor = conditions: background statement; cited from earlier work
"5-HT1 -like" receptors = conditions: agonistic action at "5-HT1 -like" receptors; background statement; cited from earlier work
[5] = 5HT1A, rat hippocampus membrane, 0.5 nM 3H-8-OH-DPAT, pH 7.4, 25° C., 30 minutes, read-out: Binding IC50 3H-8-OH-DPAT
[6] = 5HT1D, calf caudate nucleus membrane, 100 pM 125I-GTI, pH 7.4, 37° C., 30 minutes, read-out: Binding IC50 125I-GTI

| SMILES | IC50 (5HT1A receptors; [5]) | EC50 (Dog saphenous vein) | 5HT1A/5HT1D (5HT1D receptors [1]) | IC50 (5HT1D receptors [2]; [6]) | IC50 (5HT1A receptors) | IC50 (5HT1D receptors [2]) | vasoconstrictor action in the carotid vascular bed ("5-HT1 -like" receptors) | further results |
| --- | --- | --- | --- | --- | --- | --- | --- | --- |
| CN(C)CCc1c[nH]c2ccc(CS(=O)(=O)N3CCCC3)cc12.Cl [Compound 1, 1-[[3-(2-dimethylaminoethyl)-5-indolyl]methanesulphonyl]-pyrrolidine hydrochloride] | 825 ± 69 nM | 871 nM | 77.1 | 10.7 ± 0.4 nM | – | – | – | – |
| CN(C)CCc1c[nH]c2ccc(CS(=O)(=O)N3CCCCC3)cc12.Cl [Compound 2, 1-[[3-(2-dimethylaminoethyl)-5-indolyl]methanesulphonyl]piperidine hydrochloride] | – | – | 49.3 | – | 340 ± 0.5 nM | 6.9 ± 0.4 nM | – | – |
| CCOC(=O)N1CCN(S(=O)(=O)Cc2ccc3[nH]cc(CCN(C)C)c3c2)CC1 [Compound 11] | 850 ± 40 nM | 339 nM | 265.6 | – | – | 3.2 ± 0.3 nM | – | – |
| CNS(=O)(=O)Cc1ccc2[nH]cc(CCN(C)C)c2c1 [Sumatriptan, reference compound] | – | 871 nM | 44.2 | 10.4 ± 1 nM | 460 ± 67 nM | – | – | affinity for 5-HT1A receptor (5-HT1A receptor [3]): very important affinity for 5-HT1A receptor; hypotension and other side effects (5-HT1A receptor [4]): causes hypotension by a central nervous system action and other side effects; affinity for 5-HT1D receptor (5-HT1D receptor): high affinity for 5-HT1D receptor |
| CN1C[C@H](C(=O)N[C@]2(C)O[C@@]3(O)[C@@H]4CCCN4C(=O)[C@H](Cc4ccccc4)N3C2=O)C=C2c3cccc4[nH]cc(c34)C[C@H]21 [ergotamine] | – | – | – | – | – | – | vasoconstrictor action in the carotid vascular bed | – |
| NCCc1c[nH]c2ccc(O)cc12 [serotonine, 5-Hydroxytryptamine] | – | – | – | – | – | – | vasoconstrictor action in the carotid vascular bed | – |

— patent publication US5565447A, “Indole derivatives” (Laboratorios Almirall S.A., priority 1992, dated 1996)
